Drawing on patent publication US10329289B2, “6,7-dihydro-5H-pyrrolo[3,4-B]pyridin-5-one allosteric modulators of the M4 muscarinic acetylcholine receptor” (Merck Sharp & Dohme Corp., priority 2015, dated 2019), this text covers EC50 for 33 compounds.

In the assay the target is T1, human M4 muscarinic acetylcholine receptor (Homo sapiens, UniProt P08173).
T1 construct: expressed in transfected cells; host or cells: CHO-K1
T1 sequence (P08173 1-479): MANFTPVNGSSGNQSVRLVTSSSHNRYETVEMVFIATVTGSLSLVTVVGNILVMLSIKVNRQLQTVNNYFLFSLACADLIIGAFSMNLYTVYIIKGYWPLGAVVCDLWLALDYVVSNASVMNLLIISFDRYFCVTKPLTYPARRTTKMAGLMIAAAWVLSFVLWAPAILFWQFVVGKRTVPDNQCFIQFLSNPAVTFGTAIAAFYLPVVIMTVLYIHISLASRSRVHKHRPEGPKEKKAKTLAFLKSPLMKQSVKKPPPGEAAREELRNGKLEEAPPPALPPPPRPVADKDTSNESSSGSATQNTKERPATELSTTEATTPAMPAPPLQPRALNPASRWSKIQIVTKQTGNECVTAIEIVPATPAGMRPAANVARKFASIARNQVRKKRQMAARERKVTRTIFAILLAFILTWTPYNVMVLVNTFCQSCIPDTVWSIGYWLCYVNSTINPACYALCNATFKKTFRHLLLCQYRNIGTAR
Nature of the assay: human FLIPR-based M4 PAM assay (Ca2+ mobilization, CHO-K1 cells with human M4 receptor and Gαqi5). It counts as cell-based. Particulars: acetylcholine at 20% of maximum response, read-out: M4 PAM IP. An outline of the steps: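 Calcium-mobilization (FLIPR) readout in dye-loaded CHO-K1 cells co-expressing human M4 receptor and Gαqi5. Potentiation measured against acetylcholine at a concentration giving 20% of maximal response, with an optional 70% addition; the reported value is the curve inflection point from a 4-parameter logistic fit.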
On the technique in general: A change in cytosolic calcium serves as a functional read-out for many receptors and channels.
For the compound `Cc1cc2c(nc1N1CCC(Oc3ccccc3Cl)CC1)CNC2=O` [Example 73, 2-(4-(2-chlorophenoxy)piperidin-1-yl)-3-methyl-6,7-dihydro-5H-pyrrolo[3,4-b]pyridin-5-one], the EC50 was 2250 nM.

For `Cc1cc2c(nc1N1CCC(Oc3cccc(Cl)c3)CC1)CNC2=O` [Example 74, 2-(4-(3-chlorophenoxy)piperidin-1-yl)-3-methyl-6,7-dihydro-5H-pyrrolo[3,4-b]pyridin-5-one], the EC50 was 46 nM.

Regarding `Cc1cc2c(nc1N1CCC(Oc3ccccc3F)CC1)CNC2=O` [Example 75, 2-(4-(2-fluorophenoxy)piperidin-1-yl)-3-methyl-6,7-dihydro-5H-pyrrolo[3,4-b]pyridin-5-one], the EC50 was found to be 236 nM.

Regarding `Cc1cc2c(nc1N1CCC(Oc3ccc(Cl)cc3)CC1)CNC2=O` [Example 76, 2-(4-(4-chlorophenoxy)piperidin-1-yl)-3-methyl-6,7-dihydro-5H-pyrrolo[3,4-b]pyridin-5-one], the EC50 was 80 nM.

For the compound `Cc1cc2c(nc1N1CCC(Oc3ccncc3)CC1)CNC2=O` [Example 77, 3-methyl-2-(4-(pyridin-4-yloxy)piperidin-1-yl)-6,7-dihydro-5H-pyrrolo[3,4-b]pyridin-5-one], the EC50 stood at 214 nM.

With `Cc1cccc(OC2CCN(c3nc4c(cc3C)C(=O)NC4)CC2)c1` [Example 78, 3-methyl-2-(4-(m-tolyloxy)piperidin-1-yl)-6,7-dihydro-5H-pyrrolo[3,4-b]pyridin-5-one], the EC50 was found to be 33 nM.

In the case of `Cc1ccccc1OC1CCN(c2nc3c(cc2C)C(=O)NC3)CC1` [Example 79, 3-methyl-2-(4-(o-tolyloxy)piperidin-1-yl)-6,7-dihydro-5H-pyrrolo[3,4-b]pyridin-5-one], the EC50 amounted to 2280 nM.

As to `Cc1cc2c(nc1N1CCC(Oc3ccc4ocnc4c3)CC1)CNC2=O` [Example 80, 2-(4-(benzo[d]oxazol-5-yloxy)piperidin-1-yl)-3-methyl-6,7-dihydro-5H-pyrrolo[3,4-b]pyridin-5-one], the EC50 was 69 nM.

On to `Cc1cc2c(nc1N1CCC(Oc3ccc(F)c(F)c3)CC1)CNC2=O` [Example 81, 2-(4-(3,4-difluorophenoxy)piperi-din-1-yl)-3-methyl-6,7-dihydro-5H-pyrrolo[3,4-b]pyridin-5-one], for which the EC50 came out at 37 nM.

For `Cc1ccc(OC2CCN(c3nc4c(cc3C)C(=O)NC4)CC2)cc1Cl` [Example 82, 2-(4-(3-chloro-4-methylphenoxy)piperidin-1-yl)-3-methyl-6,7-dihydro-5H-pyrrolo[3,4-b]pyridin-5-one], the EC50 came to 121 nM.

Consider `Cc1ccc(OC2CCN(c3nc4c(cc3C)C(=O)NC4)CC2)cc1` [Example 83, 3-methyl-2-(4-(p-tolyloxy)piperidin-1-yl)-6,7-dihydro-5H-pyrrolo[3,4-b]pyridin-5-one], for which the EC50 stood at 48 nM.

For `Cc1cc2c(nc1N1CCC(Oc3ccc(C#N)cc3)CC1)CNC2=O` [Example 84, 4-((1-(3-methyl-5-oxo-6,7-dihydro-5H-pyrrolo[3,4-b]pyridin-2-yl)piperidin-4-yl)oxy)benzonitrile], the EC50 stood at 229 nM.

Regarding `Cc1cc2c(nc1N1CCC(Oc3ccc(C#N)nc3)CC1)CNC2=O` [Example 85, 5-((1-(3-methyl-5-oxo-6,7-dihydro-5H-pyrrolo[3,4-b]pyridin-2-yl)piperidin-4-yl)oxy)picolinonitrile], the EC50 amounted to 2620 nM.

Regarding `Cc1cc2c(nc1N1CCC(Oc3ccon3)CC1)CNC2=O` [Example 86, 2-(4-(isoxazol-3-yloxy)piperidin-1-yl)-3-methyl-6,7-dihydro-5H-pyrrolo[3,4-b]pyridin-5-one], the EC50 turned out to be 5690 nM.

On to `COC(=O)c1ccc(OC2CCN(c3nc4c(cc3C)C(=O)NC4)CC2)cn1` [Example 87, methyl 5-((1-(3-methyl-5-oxo-6,7-dihydro-5H-pyrrolo[3,4-b]pyridin-2-yl)piperidin-4-yl)oxy)picolinate], for which the EC50 stood at 1000 nM.

On to `Cc1cc2c(nc1N1CCC(Oc3ccc(C(F)(F)F)nc3)CC1)CNC2=O` [Example 88, 3-methyl-2-(4-((6-(trifluoromethyl)pyridin-3-yl)oxy)piperidin-1-yl)-6,7-dihydro-5H-pyrrolo[3,4-b]pyridin-5-one], for which the EC50 was 381 nM.

Consider `Cc1cc2c(nc1N1CCC(Oc3ccc4ncoc4c3)CC1)CNC2=O` [Example 89, 2-(4-(benzo[d]oxazol-6-yloxy)piperidin-1-yl)-3-methyl-6,7-dihydro-5H-pyrrolo[3,4-b]pyridin-5-one], for which the EC50 amounted to 83 nM.

For the compound `COc1cc(OC2CCN(c3nc4c(cc3C)C(=O)NC4)CC2)ccn1` [Example 90, 2-(4-((2-methoxypyridin-4-yl)oxy)piperidin-1-yl)-3-methyl-6,7-dihydro-5H-pyrrolo[3,4-b]pyridin-5-one], the EC50 is 94 nM.

Consider `Cc1cc2c(nc1N1CCC(Oc3ccc(F)nc3)CC1)CNC2=O` [Example 91, 2-(4-((6-fluoropyridin-3-yl)oxy)piperidin-1-yl)-3-methyl-6,7-dihydro-5H-pyrrolo[3,4-b]pyridin-5-one], for which the EC50 stood at 60 nM.

On to `Cc1cc2c(nc1N1CCC(Oc3ccc4cccnc4c3)CC1)CNC2=O` [Example 92, 3-methyl-2-(4-(quinolin-7-yloxy)piperidin-1-yl)-6,7-dihydro-5H-pyrrolo[3,4-b]pyridin-5-one], for which the EC50 came out at 461 nM.

As for `Cc1cc2c(nc1N1CCC(Oc3ccnc(C#N)c3)CC1)CNC2=O` [Example 93, 4-((1-(3-methyl-5-oxo-6,7-dihydro-5H-pyrrolo[3,4-b]pyridin-2-yl)piperidin-4-yl)oxy)picolinonitrile], the EC50 is 944 nM.

In the case of `CCc1cc2c(nc1N1CCC(Oc3cccc(C#N)c3)CC1)CNC2=O` [Example 93A, 3-((1-(3-ethyl-5-oxo-6,7-dihydro-5H-pyrrolo[3,4-b]pyridin-2-yl)piperidin-4-yl)oxy)benzonitrile], the EC50 was 148 nM.

With `COc1ncc(OC2CCN(c3nc4c(cc3C)C(=O)NC4)CC2)cn1` [Example 94, 2-(4-((2-methoxypyrimidin-5-yl)oxy)piperidin-1-yl)-3-methyl-6,7-dihydro-5H-pyrrolo[3,4-b]pyridin-5-one], the EC50 was determined as 1730 nM.

With `Cc1c(N2CCC(Oc3cccc(C#N)c3)CC2)nc2c(c1C)C(=O)NC2` [Example 94A, 3-((1-(3,4-dimethyl-5-oxo-6,7-dihydro-5H-pyrrolo[3,4-b]pyridin-2-yl)piperidin-4-yl)oxy)benzonitrile], the EC50 was found to be 193 nM.

For the compound `Cc1cc2c(nc1N1[C@@H]3CC[C@H]1C[C@@H](Oc1cccc(C#N)c1)C3)CNC2=O` [Example 95, 3-((endo-8-(3-methyl-5-oxo-6,7-dihydro-5H-pyrrolo[3,4-b]pyridin-2-yl)-8-azabicyclo[3.2.1]octan-3-yl)oxy)benzonitrile], the EC50 was 616 nM.

On to `Cc1cc2c(nc1N1[C@@H]3CC[C@H]1C[C@H](Oc1cccc(C#N)c1)C3)CNC2=O` [Example 96, 3-((exo-8-(3-methyl-5-oxo-6,7-dihydro-5H-pyrrolo[3,4-b]pyridin-2-yl)-8-azabicyclo[3.2.1]octan-3-yl)oxy)benzonitrile], for which the EC50 came out at 1430 nM.

Consider `COc1ccc(O[C@H]2C[C@H]3CC[C@@H](C2)N3c2nc3c(cc2C)C(=O)NC3)cn1` [Example 97, 2-(endo-3-((6-methoxypyridin-3-yl)oxy)-8-azabicyclo[3.2.1]octan-8-yl)-3-methyl-6,7-dihydro-5H-pyrrolo[3,4-b]pyridin-5-one], for which the EC50 turned out to be 800 nM.

On to `Cc1cc2c(nc1N1[C@@H]3CC[C@H]1C[C@H](Oc1ccc4c(cnn4C)c1)C3)CNC2=O` [Example 98, 3-methyl-2-(exo-3-((1-methyl-1H-indazol-5-yl)oxy)-8-azabicyclo[3.2.1]octan-8-yl)-6,7-dihydro-5H-pyrrolo[3,4-b]pyridin-5-one], for which the EC50 was found to be 522 nM.

Regarding `COc1ccc(O[C@@H]2C[C@H]3CC[C@@H](C2)N3c2nc3c(cc2C)C(=O)NC3)cn1` [Example 99, 2-(exo-3-((6-methoxypyridin-3-yl)oxy)-8-azabicyclo[3.2.1]octan-8-yl)-3-methyl-6,7-dihydro-5H-pyrrolo[3,4-b]pyridin-5-one], the EC50 stood at 735 nM.

`Cc1cc2c(nc1N1[C@@H]3CC[C@H]1C[C@@H](Oc1ccc4c(cnn4C)c1)C3)CNC2=O` [Example 100, 3-methyl-2-(endo-3-((1-methyl-1H-indazol-5-yl)oxy)-8-azabicyclo[3.2.1]octan-8-yl)-6,7-dihydro-5H-pyrrolo[3,4-b]pyridin-5-one]: the EC50 came to 1030 nM.

Regarding `COc1cncc(OC2CCN(c3nc4c(cc3C)C(=O)NC4)CC2)c1` [Example 101, 2-(4-((5-methoxypyridin-3-yl)oxy)piperidin-1-yl)-3-methyl-6,7-dihydro-5H-pyrrolo[3,4-b]pyridin-5-one], the EC50 came out at 869 nM.

Turning to `Cc1cc2c(nc1N1CCC(Oc3ccnc(OC(F)(F)F)c3)CC1)CNC2=O` [Example 102, 3-methyl-2-(4-((2-(trifluoromethoxy)pyri-din-4-yl)oxy)piperidin-1-yl)-6,7-dihydro-5H-pyrrolo[3,4-b]pyridin-5-one], the EC50 came to 690 nM.

Turning to `Cc1cc2c(nc1N1CCC(Oc3cncc(F)c3)CC1)CNC2=O` [Example 103, 2-(4-((5-fluoropyridin-3-yl)oxy)piperidin-1-yl)-3-methyl-6,7-dihydro-5H-pyrrolo[3,4-b]pyridin-5-one], the EC50 is 138 nM.
